{
  "source": "patent US10975083B2",
  "about": "“Blood-brain barrier-penetrant dopamine-β-hydroxylase inhibitors” (BIAL—PORTELA & Cᵃ, S.A., priority 2016, dated 2021)",
  "key": {"[1]": {"molecular_target": "T1, Dopamine beta hydroxylase (Homo sapiens, UniProt P09172)", "T1 construct": "Human plasma samples were obtained from healthy donors; tissue Instituto Portugues do Sangue Transplantacao, Porto; host or cells: human plasma from healthy donors", "T1 sequence (P09172 40-617 limits assumed)": "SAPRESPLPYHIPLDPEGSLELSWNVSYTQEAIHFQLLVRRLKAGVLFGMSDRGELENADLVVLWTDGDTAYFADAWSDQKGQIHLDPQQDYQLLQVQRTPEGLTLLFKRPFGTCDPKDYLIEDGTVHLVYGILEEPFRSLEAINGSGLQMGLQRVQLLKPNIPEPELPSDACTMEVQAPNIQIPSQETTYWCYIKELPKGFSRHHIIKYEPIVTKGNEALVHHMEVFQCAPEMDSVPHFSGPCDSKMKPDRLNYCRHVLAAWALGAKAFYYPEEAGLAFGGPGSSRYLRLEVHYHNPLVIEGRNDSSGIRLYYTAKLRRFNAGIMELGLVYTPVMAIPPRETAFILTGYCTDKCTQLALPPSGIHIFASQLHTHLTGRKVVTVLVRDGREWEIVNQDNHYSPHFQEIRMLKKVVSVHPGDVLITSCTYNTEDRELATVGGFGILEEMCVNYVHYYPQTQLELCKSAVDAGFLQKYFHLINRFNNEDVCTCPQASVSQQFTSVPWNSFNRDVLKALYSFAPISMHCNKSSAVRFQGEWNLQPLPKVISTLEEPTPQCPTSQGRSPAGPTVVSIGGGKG", "experiment": "DβH activity in human plasma", "format": "biochemical", "conditions": "inhibitor 0.1 μM", "description": "Furthermore, the ability of a compound to inhibit DβH activity may be assessed in human plasma using the following assay. […]. Dopamine beta hydroxylase activity in human plasma was measured by the method previously developed (Nagatsu, T. and Udenfriend, S. Photometric assay of dopamine-β-hydroxylase activity in human blood. Clin. Chem. 18(9) 980-983, 1972) with minor modifications. Catalase, N-ethylmaleimide, tyramine, disodium fumarate, pargyline, sodium acetate, ascorbic acid, copper sulfate and octopamine were obtained from Sigma Chemical Co., St. Louis, Mo. 63178. Human plasma samples were obtained from healthy donors (Instituto Portugues do Sangue Transplantacao, Centro Sangue Transplantacao, Porto, Portugal). From date of collection, plasma was stored at −80° C. until use. Test compounds were initially prepared in dimethyl sulfoxide at a concentration of 10 mM and diluted in dimethyl sulfoxide to the required concentrations. […] Absorbance was measured at […] in a 96-well plate by use of a SpectraMAX plus 384 (Molecular Devices) with software SOFTmax® PRO Software 5.3 spectrophotometer. Absorbance was linear with octopamine concentration from 0.5 to 20 μg/ml. Dopamine beta hydroxylase activity is determined as nmol of octopamine formed/ml of plasma/hour and effect of compounds is presented as % control. […]"}, "DβH": {"molecular_target": "T2, DβH (Homo sapiens, UniProt P09172)", "T2 construct": "reaction mixture (total volume 500 μl) contained: cellular homogenate (75 μg total protein); host or cells: SK-N-SH cell homogenate", "T2 sequence (P09172 1-617)": "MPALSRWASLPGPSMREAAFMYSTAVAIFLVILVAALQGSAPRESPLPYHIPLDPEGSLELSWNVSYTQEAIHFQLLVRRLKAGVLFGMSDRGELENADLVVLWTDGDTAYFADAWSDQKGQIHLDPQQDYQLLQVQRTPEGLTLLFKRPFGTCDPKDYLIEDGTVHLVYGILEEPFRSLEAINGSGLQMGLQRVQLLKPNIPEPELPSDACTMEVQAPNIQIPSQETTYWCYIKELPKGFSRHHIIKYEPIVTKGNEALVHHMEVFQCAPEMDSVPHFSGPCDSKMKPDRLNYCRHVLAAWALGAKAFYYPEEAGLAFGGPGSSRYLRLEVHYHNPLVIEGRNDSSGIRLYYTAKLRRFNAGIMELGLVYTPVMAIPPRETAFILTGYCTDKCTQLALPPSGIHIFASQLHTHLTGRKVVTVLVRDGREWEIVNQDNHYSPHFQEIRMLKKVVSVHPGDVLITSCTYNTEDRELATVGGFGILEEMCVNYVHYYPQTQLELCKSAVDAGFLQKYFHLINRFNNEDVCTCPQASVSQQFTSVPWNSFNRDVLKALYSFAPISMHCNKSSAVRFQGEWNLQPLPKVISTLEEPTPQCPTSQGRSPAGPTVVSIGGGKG", "experiment": "DβH inhibition cell assay (SK-N-SH cellular homogenates, tyramine to octopamine)", "format": "biochemical", "conditions": "for remaining activity at 0.1 µM: read-out: DβH activity in % of Ctrl (0.1 μM); for remaining activity at 1 µM: read-out: DβH activity in % of Ctrl (1 μM); for remaining activity at 10 µM: inhibitor 10 μM, read-out: DβH activity in % of Ctrl (10 μM)"}, "in vitro": {"experiment": "in vitro", "conditions": "dog, MDCK, pH 7.4"}, "[2]": {"conditions": "inhibitor 0.1 μM, SK-N-SH cell homogenate"}, "[3]": {"conditions": "inhibitor 1 μM, SK-N-SH cell homogenate"}},
  "note": "Where two headings read alike, the source gives them in different places. Marks after values point to notes of the source that are not given here.",
  "data": [
    {"molecule": "Cc1[nH]c(=S)n2c1[C@@H]1C[C@]1(c1cc(Br)ccc1F)C2", "note": "[Example 122, (5aS,6aR)-5a-(5-bromo-2-fluorophenyl)-1-methyl-5,5a,6,6a-tetrahydrocyclopropa[3,4]pyrrolo[1,2-c]imidazole-3 (2H)-thione]", "values": [
      {"measurement": "DβH activity in % of control in human plasma assay (numbers in brackets)", "setting": "[1]", "value": "(9.8)* % of Ctrl"}
    ]},
    {"molecule": "Fc1cc(F)cc(C23CC2c2c[nH]c(=S)n2C3)c1", "note": "(stereo not drawn) [Example 53, 5a-(3,5-difluorophenyl)-5,5a,6,6a-tetrahydrocyclopropa[3,4]pyrrolo[1,2-c]imidazole-3(2H)-thione]", "values": [
      {"measurement": "remaining activity at 0.1 µM", "setting": "DβH", "value": 66.5, "unit": "%"},
      {"measurement": "remaining activity at 1 µM", "setting": "DβH", "value": 11.8, "unit": "%"},
      {"measurement": "Papp A→B at 30 min, 50 μM", "setting": "in vitro", "value": 25.1, "unit": "×10⁻⁶ cm/s"}
    ]},
    {"molecule": "Fc1ccc(F)c(C23CC2c2c[nH]c(=S)n2C3)c1", "note": "(stereo not drawn) [Example 55, 5a-(2,5-difluorophenyl)-5,5a,6,6a-tetrahydrocyclopropa[3,4]pyrrolo[1,2-c]imidazole-3(2H)-thione]", "values": [
      {"measurement": "remaining activity at 0.1 µM", "setting": "DβH; [2]", "value": 61, "unit": "%"},
      {"measurement": "remaining activity at 1 µM", "setting": "DβH; [3]", "value": 0.4, "unit": "%"},
      {"measurement": "Papp A→B at 30 min, 50 μM", "setting": "in vitro", "value": 79.4, "unit": "×10⁻⁶ cm/s"}
    ]},
    {"molecule": "S=c1[nH]cc2n1CC(c1ccccc1)C2", "note": "(stereo not drawn) [Example 49, 6-phenyl-6,7-dihydro-2H-pyrrolo[1,2-c]imidazole-3(5H)-thione]", "values": [
      {"measurement": "remaining activity at 1 µM", "setting": "DβH", "value": 60.6, "unit": "%"},
      {"measurement": "Papp A→B at 30 min, 50 μM", "setting": "in vitro", "value": 100, "unit": "×10⁻⁶ cm/s"}
    ]},
    {"molecule": "NC(=S)N1C[C@H]2C[C@@]2(c2cccs2)C1", "note": "[Example 27, (1S,5S)-1-(thiophen-2-yl)-3-azabicyclo[3.1.0]hexane-3-carbothioamide]", "values": [
      {"measurement": "remaining activity at 1 µM", "setting": "DβH; [3]", "value": 20.8, "unit": "%"},
      {"measurement": "Papp A→B at 30 min, 50 μM", "setting": "in vitro", "value": 126, "unit": "×10⁻⁶ cm/s"}
    ]},
    {"molecule": "NC(=S)N1CC2CC2(c2ccc(F)cc2F)C1", "note": "(stereo not drawn) [Example 37, 1-(2,4-difluorophenyl)-3-azabicyclo[3.1.0]hexane-3-carbothioamide]", "values": [
      {"measurement": "remaining activity at 0.1 µM", "setting": "DβH; [2]", "value": 59.7, "unit": "%"},
      {"measurement": "remaining activity at 1 µM", "setting": "DβH; [3]", "value": 2.4, "unit": "%"},
      {"measurement": "Papp A→B at 30 min, 50 μM", "setting": "in vitro", "value": 79.4, "unit": "×10⁻⁶ cm/s"}
    ]},
    {"molecule": "Fc1cc(F)cc([C@@H]2Cc3c[nH]c(=S)n3C2)c1", "note": "[Example 59, (S)-6-(3,5-difluorophenyl)-6,7-dihydro-2H-pyrrolo[1,2-c]imidazole-3(5H)-thione]", "values": [
      {"measurement": "remaining activity at 0.1 µM", "setting": "DβH; [2]", "value": 100, "unit": "%"},
      {"measurement": "remaining activity at 1 µM", "setting": "DβH; [3]", "value": 27.8, "unit": "%"},
      {"measurement": "Papp A→B at 30 min, 50 μM", "setting": "in vitro", "value": 251, "unit": "×10⁻⁶ cm/s"}
    ]},
    {"molecule": "NC(=S)N1CCC(c2cc(F)cc(F)c2)C1", "note": "(stereo not drawn) [Example 12, 3-(3,5-Difluorophenyl)pyrrolidine-1-carbothioamide]", "values": [
      {"measurement": "remaining activity at 0.1 µM", "setting": "DβH; [2]", "value": 63, "unit": "%"},
      {"measurement": "remaining activity at 1 µM", "setting": "DβH; [3]", "value": 11.5, "unit": "%"},
      {"measurement": "remaining activity at 10 µM", "setting": "DβH; SK-N-SH cell homogenate", "value": 0, "unit": "%"},
      {"measurement": "Papp A→B at 30 min, 50 μM", "setting": "in vitro", "value": 79.4, "unit": "×10⁻⁶ cm/s"}
    ]},
    {"molecule": "NC(=S)N1CC2CC2(c2ccccc2)C1", "note": "(stereo not drawn) [Example 8, 1-phenyl-3-azabicyclo[3.1.0]hexane-3-carbothioamide]", "values": [
      {"measurement": "remaining activity at 1 µM", "setting": "DβH; [3]", "value": 14.5, "unit": "%"},
      {"measurement": "remaining activity at 10 µM", "setting": "DβH; SK-N-SH cell homogenate", "value": 2.2, "unit": "%"},
      {"measurement": "Papp A→B at 30 min, 50 μM", "setting": "in vitro", "value": 126, "unit": "×10⁻⁶ cm/s"}
    ]},
    {"molecule": "CNC(=S)N1CC2(c3cc(F)cc(F)c3)CC2C1=O", "note": "(stereo not drawn) [Example 43, 1-(3,5-Difluorophenyl)-N-methyl-4-oxo-3-azabicyclo[3.1.0]hexane-3-carbothioamide]", "values": [
      {"measurement": "remaining activity at 0.1 µM", "setting": "DβH; [2]", "value": 43.6, "unit": "%"},
      {"measurement": "remaining activity at 1 µM", "setting": "DβH; [3]", "value": 0, "unit": "%"},
      {"measurement": "Papp A→B at 30 min, 50 μM", "setting": "in vitro", "value": 200, "unit": "×10⁻⁶ cm/s"}
    ]},
    {"molecule": "NC(=S)N1CCC(c2ccsc2)C1", "note": "(stereo not drawn) [Example 15, 3-(thiophen-3-yl)pyrrolidine-1-carbothioamide]", "values": [
      {"measurement": "remaining activity at 0.1 µM", "setting": "DβH; [2]", "value": 50.1, "unit": "%"},
      {"measurement": "remaining activity at 1 µM", "setting": "DβH; [3]", "value": 9.3, "unit": "%"},
      {"measurement": "Papp A→B at 30 min, 50 μM", "setting": "in vitro", "value": 79.4, "unit": "×10⁻⁶ cm/s"}
    ]},
    {"molecule": "Fc1ccc(F)c([C@]23C[C@H]2c2c[nH]c(=S)n2C3)c1", "note": "[Example 56, (5aS,6aR)-5a-(2,5-difluorophenyl)-5,5a,6,6a-tetrahydrocyclopropa[3,4]pyrrolo[1,2-c]imidazole-3(2H)-thione]", "values": [
      {"measurement": "remaining activity at 0.1 µM", "setting": "DβH; [2]", "value": 41.7, "unit": "%"},
      {"measurement": "remaining activity at 1 µM", "setting": "DβH; [3]", "value": 7.8, "unit": "%"},
      {"measurement": "Papp A→B at 30 min, 50 μM", "setting": "in vitro", "value": 15.8, "unit": "×10⁻⁶ cm/s"}
    ]}
  ]
}
